These results are taken from patent publication US4818684A, “Auto-anti-idiotypic monoclonal antibodies to steroid receptors and uses thereof” (The Trustees of Columbia University in the City of New York, priority 1985, dated 1989).

Test [1] deals with Fab fragments of affinity purified anti-steroid antibodies. The test can be described thus: Scatchard plot of binding of labeled steroid to Fab fragments of affinity purified anti-steroid antibodies. Further details: species or system rabbit. As to conditions: curved plot with [3H]TA, linear plot with [3H]-dexamethasone; read-out: Kd for Fab fragments of the anti-steroid, from Scatchard plots. How it is done:
FIG. 3. Scatchard plot of the binding of [^3 H] triamcinolone to Fab fragments of affinity purified anti-steroid antibodies. Fab fragments (0.227 micrograms) were incubated with increasing concentrations of [^3 H] triamcinolone (0.4-62.5nM) in the presence of 0.01M phosphate buffered saline pH 7.4 containing 0.1% gelatin in a total volume of 200 microliters. Total and non-specific binding (50 micromoles triamcinolone acetonide) were determined for each of the [^3 H] triamcinolone levels and all points were in duplicate. After incubating 1 hr at room temperature, add 1 ml cold 5% charcoal/dextran (diluted 1:40 in 0.01M PBS containing 0.1% gelatin) and let stand on ice for 10 min. Centrifuge down the charcoal/dextran, decant the supernatant into scintillation vials and determine the radioactivity.

In test [2] the target is anti-steroid (unprocessed rabbit serum 540). Nature of the test: Competitive inhibition of binding of [3H] triamcinolone to anti-steroid, unprocessed rabbit serum 540. The settings on record: for Kd: read-out: Competitive inhibition of binding of [3H] triamcinolone, Rabbit Serum 540 Unprocessed (apparent Kd). The protocol:
FIG. 4. […] See legend to Table 1 for the experimental procedure.
New Zealand white rabbits were immunized by multiple intradermal injections of a total of 1 ml of triamcinolone-BSA (2 mg/ml) in saline emulsified with an equal volume of complete Freunds adjuvant. Booster injections were given three weeks later and then at monthly intervals. Animals were bled bi-weekly from the ear vein and the sera stored at 4° C. until required.

Test [3] has as its target affinity purified antisteroid. Nature of the test: Competitive inhibition of binding of [3H] triamcinolone to affinity purified antisteroid. Further details: species or system rabbit. The settings on record: for Kd: read-out: Competitive inhibition of binding of [3H] triamcinolone, Affinity purified (apparent Kd). How it is done: Thirty to 40 ml of serum obtained in part (a) of this example were passed slowly (±3.5 ml/hr) through the AH-Sepharose 4B triamcinolone column prepared according to (b) above. After washing with PBS to remove all unbound protein, the antibody was eluted with 0.2 M glycine pH 2.2 or 2.8. The eluate was dialyzed against 2 liters, 0.01 M PBS buffer pH 7.4 and the buffer changed at least 4 times before concentrating by vacuum dialysis at 4° C.
the glucocorticoid receptor, unprocessed rabbit serum 540, affinity
purified antisteroid and antisteroid Fab fragments. Assays with the […]

Test [4] has as its system binding of 8G11-C6 to anti-steroid Fab fragments. Nature of the test: ELISA inhibition of binding of 8G11-C6 to anti-steroid Fab fragments. The settings on record: ELISA (FIGS. 7, 8, 9). The protocol: Controls with no inhibitor were included.
FIG. 9. […] The method used was similar to that described in the exerimental procedure. […] 200λ of the incubation mixture was then added to microtiter wells previously coated with 10 ng anti-steroid Fab fragments and incubated for 2 hrs at 37° C.
The presence of anti-idiotypic antibodies in the hybridoma culture medium were assayed by a double antibody sandwich ELISA. […] After washing twice with 0.01 M phosphate buffer--0.14M NaCl, pH 7.4, containing 0.05% Tween-20 (PBS-Tween), the culture medium from the hybridomas was added and incubated at 37° C. for 2 hrs. The wells were washed three times with PBS-Tween and 200 microliters of 1:3,000 dilution in PBS-Tween of goat anti-mouse 1gM-1gG horseradish peroxidase (Tago) was added. After incubating 1 hr at 37°, the wells were washed three times with PBS-tween and 200 microliters substrate (7 mg o-phenylenediamine dichloride in 10 ml 0.1 M citrate-phosphate buffer, pH 4.8 containing 5 microliters of 30% H2 O2) was added. Depending on the intensity of the color, the reaction was stopped after 5-10 min by the addition of 50 microliters 8N H2 SO4 and the OD determined (Titretek) at 492 nm.
On the technique in general: ELISA stands for enzyme-linked immunosorbent assay.

Test [5] concerns the target T1, binding of 8G11-C6 to partially purified glucocorticoid receptor (Rattus norvegicus, UniProt P06536).
T1 construct: the glucocorticoid receptor was partially purified from rat liver cytosol; from tissue; host or cells: liver cytosol of Sprague-Dawley rats, receptor partially purified by the cited method of Gametchu & Harrison
T1 sequence (P06536 1-795): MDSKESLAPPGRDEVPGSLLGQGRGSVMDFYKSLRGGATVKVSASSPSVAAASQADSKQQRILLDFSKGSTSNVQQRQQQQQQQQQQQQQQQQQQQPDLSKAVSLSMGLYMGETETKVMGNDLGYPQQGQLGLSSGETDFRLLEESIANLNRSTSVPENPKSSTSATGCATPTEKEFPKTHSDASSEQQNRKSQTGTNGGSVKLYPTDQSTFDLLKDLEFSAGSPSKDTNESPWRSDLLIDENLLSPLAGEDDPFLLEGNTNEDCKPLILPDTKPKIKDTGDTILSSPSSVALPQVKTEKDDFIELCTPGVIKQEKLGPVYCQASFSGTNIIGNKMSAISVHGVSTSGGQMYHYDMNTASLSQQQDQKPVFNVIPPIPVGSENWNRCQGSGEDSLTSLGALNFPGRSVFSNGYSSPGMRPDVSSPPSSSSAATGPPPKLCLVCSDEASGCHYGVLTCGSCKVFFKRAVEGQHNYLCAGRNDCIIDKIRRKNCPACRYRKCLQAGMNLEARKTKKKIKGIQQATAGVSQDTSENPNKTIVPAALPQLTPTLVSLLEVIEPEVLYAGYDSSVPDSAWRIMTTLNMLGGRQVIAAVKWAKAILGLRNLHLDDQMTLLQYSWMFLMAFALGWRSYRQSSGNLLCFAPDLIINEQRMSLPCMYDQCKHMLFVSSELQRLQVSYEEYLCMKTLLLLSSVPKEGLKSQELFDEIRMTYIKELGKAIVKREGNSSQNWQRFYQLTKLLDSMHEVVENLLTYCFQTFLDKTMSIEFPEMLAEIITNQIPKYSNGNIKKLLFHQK
Nature of the test: ELISA inhibition of binding of 8G11-C6 to partially purified glucocorticoid receptor. The settings on record: ELISA (FIG. 11). How it is done:
FIG. 11. […] 200 microliters containing 0.54 micrograms protein of a partially purified receptor preparation in 0.1M NaHC03 pH 9.3 was added to the wells of polystyrene plates. These were incubated for 2 hrs at 37° C. Washed 2×with PBS […] 0.02% tween. […] See methods for the methodology employed. The inhibitors used were triamcinolone acetonide ( ), rabbit serum albumin ( ), and triamcinolone - RSA ( ).

For test [6], the target named is antisteroid Fab fragments. The test can be described thus: Competitive inhibition of binding of [3H] triamcinolone to antisteroid Fab fragments. The settings on record: read-out: Competitive inhibition of binding of [3H] triamcinolone, Rabbit serum 541 Fab fragments (apparent Kd). The protocol:
To the dialysate was added 0.1 M dithiothreitol (DTT) (15 microliters) EDTA (2 mg) and 0.2 mg mercuripapain (5 microliters) and the solution was incubated overnight at 37° C. It was then dialyzed against 4 l distilled H2 O for 3 hrs and then against 1 liter of PBS for 2 hrs and then applied to a Sephadex G100 column (1×5×90 cms) and eluted (±5 ml/hr) with 0.01 M PBS pH 7.4. One ml fractions were collected. Fractions 53-79 were combined and examined at 280 nm for protein content. Undigested IgG and Fc fragments were removed by passage through a protein A Sepharose column (5 ml bed volume); unbound Fab was eluted with 0.01 M PBS pH 7.4. The eluate was concentrated by vacuum dialysis.

Another test deals with T2, glucocorticoid receptor (Rattus norvegicus, UniProt P06536).
T2 sequence (P06536 1-795): T1 sequence (P06536 1-795)

`[3H]C1C2=CC(=O)C=C[C@]2(C)[C@@]2(F)[C@@H](O)C[C@@]3(C)[C@@H](C[C@@H](C)[C@]3(O)C(=O)CO)[C@@H]2C1[3H]` (stereo partly drawn) [[^3 H]-dexamethasone, 6,7[^3 H] dexamethasone]: the Kd in test [1] was found to be 0.15 µM.

Take `C[C@]12CC[C@H]3[C@@H](CCC4=CC(=O)CC[C@@]43C)[C@@H]1CC[C@@H]2O` [Testosterone]: the “Competitive inhibition of binding of [3H] triamcinolone, Rabbit Serum 540 Unprocessed (apparent Kd)” value in test [2] is on record as “not inhibited”. Further, the “Competitive inhibition of binding of [3H] triamcinolone, Affinity purified (apparent Kd)” value in test [3] is given as “not inhibited”. The “effect on the binding of 8G11-C6 to anti-steroid Fab fragments” value (“effect … to anti-steroid Fab fragments” below) in test [4] was “Neither triamcinolone, nor other steroids such as testosterone and estradiol-17β had any effect”. Further, in test [5], the “effect on the binding of 8G11-C6 to partially purified glucocorticoid receptor” value is on record as “only a slight inhibitory effect”.

`CC(=O)[C@H]1CC[C@H]2[C@@H]3CCC4=CC(=O)CC[C@]4(C)[C@H]3CC[C@]12C` [Progesterone]: the Kd in test [2], in test [3] and in test [6] was 100 µM in each case.

Consider `C[C@]12CCC(=O)C[C@@H]1CC[C@@H]1[C@@H]2CC[C@]2(C)[C@@H](O)CC[C@@H]12` [Dihydrotestosterone], for which the “Competitive inhibition of binding of [3H] triamcinolone, Rabbit Serum 540 Unprocessed (apparent Kd)” value in test [2] is listed as “had no effect”.

On to `C[C@]12CCC(=O)C=C1CC[C@@H]1[C@@H]2[C@@H](O)C[C@@]2(C)[C@H]1CC[C@]2(O)C(=O)CO` [Hydrocortisone], for which the Kd in test [2] came to 5 µM; in test [3], 100 µM; in test [6] it was 100 µM.

Consider `CC1(C)O[C@@H]2C[C@H]3[C@@H]4CCC5=CC(=O)C=C[C@]5(C)[C@@]4(F)[C@@H](O)C[C@]3(C)[C@]2(C(=O)CO)O1` [triamcinolone acetonide], for which, in test [4], the “effect … to anti-steroid Fab fragments” value is “did not affect”.

Turning to `C[C@]12CC[C@@H]3c4ccc(O)cc4CC[C@H]3[C@@H]1CC[C@@H]2O` [estradiol-17β], in test [4], the “effect … to anti-steroid Fab fragments” value was “Neither triamcinolone, nor other steroids such as testosterone and estradiol-17β had any effect”. The “effect on the binding of 8G11-C6 to partially purified glucocorticoid receptor” value in test [5] is reported as “no effect”.

triamcinolone: the Kd was 0.0032 µM in test [2], 0.015 µM in test [3], 0.015 µM in test [6] and 0.005 µM on glucocorticoid receptor. Moreover, the “effect … to anti-steroid Fab fragments” value in test [4] is “Neither triamcinolone, nor other steroids such as testosterone and estradiol-17β had any effect”.

For the compound `C[C@@H]1C[C@H]2[C@@H]3CCC4=CC(=O)C=C[C@]4(C)[C@@]3(F)[C@@H](O)C[C@]2(C)[C@@]1(O)C(=O)CO` [Dexamethasone], the Kd in test [2] amounted to 0.12 µM; in test [3] it was 0.62 µM; in test [6], 0.63 µM.

Regarding `C[C@]12C[C@H](O)[C@H]3[C@@H](CCC4=CC(=O)CC[C@@]43C)[C@@H]1CC[C@@H]2C(=O)CO` [Corticosterone], the values for the Kd in test [2], in test [3] and in test [6] were 630 µM, 100 µM and 100 µM, respectively.

In the case of “rabbit serum albumin: carrier protein tested alone as inhibitor”, the “effect … to anti-steroid Fab fragments” value in test [4] is “did not affect”.
